Earlier results, collected in patent publication US12533325B2, “Composition and method for preventing or treating opioid withdrawal symptoms” (priority 2023, dated 2026).

Tested on: heroin-seeking behavior

C=C(C)[C@@H]1CCC(C)=C[C@H]1c1c(O)cc(CCCCC)cc1O [CBD, Cannabidiol]
heroin-seeking behavior reinstated by a conditional stimulus (cue-induced reinstatement): attenuated heroin-seeking behavior reinstated by a conditional stimulus | persistence of effect on heroin-seeking behavior after administration (twenty-four hours and two weeks after administration): protracted effect with significance after twenty-four hours and even two weeks after administration
